Reference: patent publication US20240384268A1, “Oligonucleotides” (Hudson Institute of Medical Research, priority 2021, published 2024)

Target: T1, TLR8 (Homo sapiens, UniProt Q9NR97)
T1 sequence (Q9NR97 27-1041): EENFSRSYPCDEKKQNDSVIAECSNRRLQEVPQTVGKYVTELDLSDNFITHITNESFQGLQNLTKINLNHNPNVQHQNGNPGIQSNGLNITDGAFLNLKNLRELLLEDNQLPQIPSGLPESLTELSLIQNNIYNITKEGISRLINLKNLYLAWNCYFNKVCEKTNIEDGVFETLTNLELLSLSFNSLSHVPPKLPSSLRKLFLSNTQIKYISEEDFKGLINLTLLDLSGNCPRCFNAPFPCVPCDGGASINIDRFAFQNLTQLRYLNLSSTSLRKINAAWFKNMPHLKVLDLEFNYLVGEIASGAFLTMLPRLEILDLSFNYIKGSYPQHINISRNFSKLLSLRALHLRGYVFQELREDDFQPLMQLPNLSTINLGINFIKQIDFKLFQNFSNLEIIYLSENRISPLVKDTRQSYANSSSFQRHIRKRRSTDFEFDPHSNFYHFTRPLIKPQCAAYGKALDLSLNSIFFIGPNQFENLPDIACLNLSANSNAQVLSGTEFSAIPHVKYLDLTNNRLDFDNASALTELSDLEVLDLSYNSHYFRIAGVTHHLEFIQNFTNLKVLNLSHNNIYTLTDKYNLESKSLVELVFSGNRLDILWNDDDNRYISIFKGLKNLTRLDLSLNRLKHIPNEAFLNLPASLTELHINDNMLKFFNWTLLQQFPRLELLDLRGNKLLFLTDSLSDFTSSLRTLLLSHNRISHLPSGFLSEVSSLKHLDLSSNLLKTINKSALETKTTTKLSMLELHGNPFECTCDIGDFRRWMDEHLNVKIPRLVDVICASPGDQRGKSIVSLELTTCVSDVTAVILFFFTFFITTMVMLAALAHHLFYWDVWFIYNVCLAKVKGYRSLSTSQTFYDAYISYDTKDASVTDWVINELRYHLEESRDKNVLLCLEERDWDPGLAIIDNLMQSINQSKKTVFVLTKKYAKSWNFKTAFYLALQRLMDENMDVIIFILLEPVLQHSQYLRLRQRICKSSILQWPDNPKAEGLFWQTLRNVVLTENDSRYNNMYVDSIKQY
Assay: HEK-TLR8 NF-κB-luciferase reporter, R848 or Motolimod stimulation (potentiation or inhibition)
Format: cell-based
Design: expressed in transfected cells; host or cells: 293XLhTLR8 (HEK293)
Details: relative to R848 only; for TLR8 100 nM (averaged NF-κB-Luciferase level relative to R848 condition, fold increase): ASO 100 nM; for TLR8 500 nM (averaged NF-κB-Luciferase level relative to R848 condition, fold increase): ASO 500 nM

CGCTTTTCTGTCTGGT (antisense; LNA-modified, pattern not given here) [CTNN2B-311 LNA KL]
TLR8 100 nM (averaged NF-κB-Luciferase level relative to R848 condition, fold increase): 0.920 | TLR8 500 nM (averaged NF-κB-Luciferase level relative to R848 condition, fold increase): 2.896

CGGCCTCGGAAGCTCT (antisense; LNA-modified, pattern not given here) [MB21D1-168 LNA V1]
TLR8 100 nM (averaged NF-κB-Luciferase level relative to R848 condition, fold increase): 0.402 | TLR8 500 nM (averaged NF-κB-Luciferase level relative to R848 condition, fold increase): 0.219

CGTATTATAGCCGATT (antisense; LNA-modified, pattern not given here) [NC1 LNA PS 3-10-3]
TLR8 100 nM (averaged NF-κB-Luciferase level relative to R848 condition, fold increase): 0.396 | TLR8 500 nM (averaged NF-κB-Luciferase level relative to R848 condition, fold increase): 0.716

CTGCAGCTTCCTTGTC (antisense; LNA-modified, pattern not given here) [CTNN2B-2136 LNA V1]
TLR8 100 nM (averaged NF-κB-Luciferase level relative to R848 condition, fold increase): 0.478 | TLR8 500 nM (averaged NF-κB-Luciferase level relative to R848 condition, fold increase): 0.936

CTTCGTGGGGTCCTTT (antisense; LNA-modified, pattern not given here) [HPRT LNA-662 V1]
TLR8 100 nM (averaged NF-κB-Luciferase level relative to R848 condition, fold increase): 1.097 | TLR8 500 nM (averaged NF-κB-Luciferase level relative to R848 condition, fold increase): 4.366

CTTGAAGCATCGTATC (antisense; LNA-modified, pattern not given here) [CTNN2B-3648 LNA KL]
TLR8 100 nM (averaged NF-κB-Luciferase level relative to R848 condition, fold increase): 0.960 | TLR8 500 nM (averaged NF-κB-Luciferase level relative to R848 condition, fold increase): 3.889

CTTGGCTTCGTGGAGC (antisense; LNA-modified, pattern not given here) [MB21D1-520 LNA V1]
TLR8 100 nM (averaged NF-κB-Luciferase level relative to R848 condition, fold increase): 0.458 | TLR8 500 nM (averaged NF-κB-Luciferase level relative to R848 condition, fold increase): 0.594

GAAAGGTTATGCAAGG (antisense; LNA-modified, pattern not given here) [CTNN2B-916 LNA KL]
TLR8 100 nM (averaged NF-κB-Luciferase level relative to R848 condition, fold increase): 1.156 | TLR8 500 nM (averaged NF-κB-Luciferase level relative to R848 condition, fold increase): 4.110

GACTATACGCGCAATA (antisense; LNA-modified, pattern not given here) [NC5 LNA PS 3-10-3]
TLR8 100 nM (averaged NF-κB-Luciferase level relative to R848 condition, fold increase): 0.777 | TLR8 500 nM (averaged NF-κB-Luciferase level relative to R848 condition, fold increase): 3.376

GAGGTCTTGGCTTCGT (antisense; LNA-modified, pattern not given here) [MB21D1-525 LNA V1]
TLR8 100 nM (averaged NF-κB-Luciferase level relative to R848 condition, fold increase): 0.574 | TLR8 500 nM (averaged NF-κB-Luciferase level relative to R848 condition, fold increase): 0.642

GATGGCCTCCCATCTC (antisense; LNA-modified, pattern not given here) [HPRT LNA-331 V1]
TLR8 100 nM (averaged NF-κB-Luciferase level relative to R848 condition, fold increase): 0.278 | TLR8 500 nM (averaged NF-κB-Luciferase level relative to R848 condition, fold increase): 0.186

GCACACTTCGTACCCA (antisense; LNA-modified, pattern not given here) [CAMSAP1-4915 LNA V1]
TLR8 100 nM (averaged NF-κB-Luciferase level relative to R848 condition, fold increase): 0.319 | TLR8 500 nM (averaged NF-κB-Luciferase level relative to R848 condition, fold increase): 1.091

GCACTTCAGTCTGAGC (antisense; LNA-modified, pattern not given here) [MB21D1-719 LNA KL]
TLR8 100 nM (averaged NF-κB-Luciferase level relative to R848 condition, fold increase): 0.495 | TLR8 500 nM (averaged NF-κB-Luciferase level relative to R848 condition, fold increase): 0.864

GGAGGTCTTGGCTTCG (antisense; LNA-modified, pattern not given here) [MB21D1-526 LNA V1]
TLR8 100 nM (averaged NF-κB-Luciferase level relative to R848 condition, fold increase): 0.575 | TLR8 500 nM (averaged NF-κB-Luciferase level relative to R848 condition, fold increase): 0.882

GGCACTTTGCCTCCTT (antisense; LNA-modified, pattern not given here) [EGFR-2859 LNA V1]
TLR8 100 nM (averaged NF-κB-Luciferase level relative to R848 condition, fold increase): 0.652 | TLR8 500 nM (averaged NF-κB-Luciferase level relative to R848 condition, fold increase): 0.862

GGCTCGGCTTGCCTAC (antisense; LNA-modified, pattern not given here) [CAMSAP1-5594 LNA V1]
TLR8 100 nM (averaged NF-κB-Luciferase level relative to R848 condition, fold increase): 0.374 | TLR8 500 nM (averaged NF-κB-Luciferase level relative to R848 condition, fold increase): 0.706

GGTCATTACAATAGCT (antisense; LNA-modified, pattern not given here) [HPRT LNA-475 KL]
TLR8 100 nM (averaged NF-κB-Luciferase level relative to R848 condition, fold increase): 0.500 | TLR8 500 nM (averaged NF-κB-Luciferase level relative to R848 condition, fold increase): 1.381

GGTCTTGGCTTCGTGG (antisense; LNA-modified, pattern not given here) [MB21D1-523 LNA V1]
TLR8 100 nM (averaged NF-κB-Luciferase level relative to R848 condition, fold increase): 0.616 | TLR8 500 nM (averaged NF-κB-Luciferase level relative to R848 condition, fold increase): 1.386

GTCAAGGGCATATCCT (antisense; LNA-modified, pattern not given here) [HPRT LNA-732 KL]
TLR8 100 nM (averaged NF-κB-Luciferase level relative to R848 condition, fold increase): 0.543 | TLR8 500 nM (averaged NF-κB-Luciferase level relative to R848 condition, fold increase): 2.301

GTCCTTGCACGTGGCT (antisense; LNA-modified, pattern not given here) [EGFR-1015 LNA V1]
TLR8 100 nM (averaged NF-κB-Luciferase level relative to R848 condition, fold increase): 0.570 | TLR8 500 nM (averaged NF-κB-Luciferase level relative to R848 condition, fold increase): 0.936

GTCTCTGGAGCTTCCT (antisense; LNA-modified, pattern not given here) [CAMSAP1-2456 LNA V1]
TLR8 100 nM (averaged NF-κB-Luciferase level relative to R848 condition, fold increase): 0.764 | TLR8 500 nM (averaged NF-κB-Luciferase level relative to R848 condition, fold increase): 2.402

GTCTTCATCGGCCCTG (antisense; LNA-modified, pattern not given here) [CAMSAP1-2113 LNA V1]
TLR8 100 nM (averaged NF-κB-Luciferase level relative to R848 condition, fold increase): 0.664 | TLR8 500 nM (averaged NF-κB-Luciferase level relative to R848 condition, fold increase): 2.086

GTGATCTTGACATGCT (antisense; LNA-modified, pattern not given here) [EGFR-2790 LNA KL]
TLR8 100 nM (averaged NF-κB-Luciferase level relative to R848 condition, fold increase): 0.583 | TLR8 500 nM (averaged NF-κB-Luciferase level relative to R848 condition, fold increase): 1.806

GTGATGGCCTCCCATC (antisense; LNA-modified, pattern not given here) [HPRT LNA-333 V1]
TLR8 100 nM (averaged NF-κB-Luciferase level relative to R848 condition, fold increase): 0.517 | TLR8 500 nM (averaged NF-κB-Luciferase level relative to R848 condition, fold increase): 1.112

TACTTTCCGAGGTGTC (antisense; LNA-modified, pattern not given here) [CAMSAP1-1739 LNA KL]
TLR8 100 nM (averaged NF-κB-Luciferase level relative to R848 condition, fold increase): 0.417 | TLR8 500 nM (averaged NF-κB-Luciferase level relative to R848 condition, fold increase): 1.585

TCCACAATCAAGACAT (antisense; LNA-modified, pattern not given here) [HPRT LNA-551 KL]
TLR8 100 nM (averaged NF-κB-Luciferase level relative to R848 condition, fold increase): 0.474 | TLR8 500 nM (averaged NF-κB-Luciferase level relative to R848 condition, fold increase): 0.893

TCCATACCCAAGGCAT (antisense; LNA-modified, pattern not given here) [CTNN2B-2446 LNA V1]
TLR8 100 nM (averaged NF-κB-Luciferase level relative to R848 condition, fold increase): 0.595 | TLR8 500 nM (averaged NF-κB-Luciferase level relative to R848 condition, fold increase): 1.334

TCCGCCCAAAGGGAAC (antisense; LNA-modified, pattern not given here) [HPRT LNA-1027 KL]
TLR8 100 nM (averaged NF-κB-Luciferase level relative to R848 condition, fold increase): 0.541 | TLR8 500 nM (averaged NF-κB-Luciferase level relative to R848 condition, fold increase): 0.725

TCCTTGCACGTGGCTT (antisense; LNA-modified, pattern not given here) [EGFR-1014 LNA V1]
TLR8 100 nM (averaged NF-κB-Luciferase level relative to R848 condition, fold increase): 0.491 | TLR8 500 nM (averaged NF-κB-Luciferase level relative to R848 condition, fold increase): 0.601

TCGTGGGGTCCTTTTC (antisense; LNA-modified, pattern not given here) [HPRT LNA-660 V1]
TLR8 100 nM (averaged NF-κB-Luciferase level relative to R848 condition, fold increase): 0.778 | TLR8 500 nM (averaged NF-κB-Luciferase level relative to R848 condition, fold increase): 2.966
